Counter-ions that a name gives are not always drawn.
Molecular target: T1, Human recombinant His-tagged PFKFB3 (Homo sapiens, UniProt Q16875)
T1 construct: His; made in house
Assay: PFKFB3 IC50 Determination Assay (in vitro kinase assay, modified ADP-Glo system)
Type: biochemical
Details: ATP 20 μM and fructose-6-phosphate 2 μM (Km), 25 nM PFKFB3, 2 h, rt, ADP-Glo luminescence
Experimental: PFKFB3 IC50 Determination Assay
In vitro kinase assay used to determine IC50 values for tested inhibitors is based on a modified ADP-Glo™ system (Promega) and consists of two parts:
1. Kinase reaction—performed in optimized conditions. At this step PFKFB3 phosphorylates its substrate Fructose-6-phosphate using ATP as a source of phosphate to produce Fructose-2,6-bisphosphate and ADP. Reaction is performed at Km values for ATP and substrate using optimized buffer composition and time of the reaction. Human recombinant His-tagged PFKFB3 (PFKFB3 BATCH II SEC) with confirmed activity is produced and purified in-house. 2. Detection of ADP as a product of the reaction using ADP-Glo™ system. This part is conducted by using the commercially available kit ADP-Glo™ Kinase Assay (Promega, cat. No# V9103) according to manufacturer's instruction, modified by 5x dilutions of assay reagents (both ADP-Glo™ Reagent and Kinase Detection Solution).
Test compounds are dissolved in DMSO and then transferred to the V-bottom 96-well plate.
15 μL per well of Mix 1 is transferred to assay wells of 96-well white plate. […] Total reaction volume is 30 μL per well. Samples are tested in duplicates. Final concentration of DMSO in the reaction is 6.7%. Conditions needed for performing PFKFB3 (PFKFB3 BATCH II SEC) in vitro kinase assay are given below:
This protocol is based on Technical Bulletin, ADP-Glo™ Kinase Assay (Promega) and is adapted to 96-well plate containing 30 μL reaction mixture:
30 μL of 5x diluted ADP-Glo™ Reagent is added to each well of 96-well plate containing 30 μL of reaction mixture. The plate is incubated for 90 minutes on a shaker at RT. 60 μL of 5x diluted Kinase Detection Solution is added to each well of 96-well plate containing 60 μL of the solution (ratio of kinase reaction volume to ADP-Glo™ Reagent volume to Kinase Detection Solution volume is maintained at 1:1:2). Plate is incubated for 40 minutes on a shaker at RT, protected from light. Luminescence is measured in the plate reader Synergy 2 (BioTek).
Luminescent readouts for compounds tested in 10 concentrations (routinely from 100 μM to […], […] serial dilutions) in duplicates, as well as for positive control, are first normalized to no-substrate negative control by its subtraction. In the next step, % of normalized positive control is calculated for each data point and plotted against test compound concentration:
% of control percent of positive control normalized to no-substrate negative control Lumcpd luminescence of test compound Lumneg luminescence of no-substrate negative control Lumpos luminescence of positive control
IC50 parameter is determined by the GraphPad Prism 5.0 software [log(inhibitor) vs. response −Variable slope (four parameters)].

T1 sequence (Q16875 whole entry): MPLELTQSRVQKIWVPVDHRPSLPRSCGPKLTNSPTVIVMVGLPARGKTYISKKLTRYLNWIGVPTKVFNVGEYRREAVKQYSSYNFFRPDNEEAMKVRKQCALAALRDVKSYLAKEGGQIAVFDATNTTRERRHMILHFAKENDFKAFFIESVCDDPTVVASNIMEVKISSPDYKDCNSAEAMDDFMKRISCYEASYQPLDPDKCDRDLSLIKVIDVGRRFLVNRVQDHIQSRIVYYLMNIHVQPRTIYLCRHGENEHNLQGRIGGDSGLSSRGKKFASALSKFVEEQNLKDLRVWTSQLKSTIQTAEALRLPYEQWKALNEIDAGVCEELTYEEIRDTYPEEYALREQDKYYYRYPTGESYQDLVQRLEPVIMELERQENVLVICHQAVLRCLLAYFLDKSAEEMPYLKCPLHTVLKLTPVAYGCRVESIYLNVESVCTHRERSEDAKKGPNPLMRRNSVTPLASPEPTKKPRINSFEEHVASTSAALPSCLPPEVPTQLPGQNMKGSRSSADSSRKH

SMILES | IC50 [µM]
CN(C)Cc1ccccc1Nc1cc(-c2ccc3ccn(C)c3c2)c2nccnc2c1 [Example 176, N-{2-[(Dimethylamino)methyl]phenyl}-8-(1-methyl-1H-indol-6-yl)quinoxalin-6-amine] | 0.001 to 1
Cc1csc2ccc(-c3cc(Nc4ccccc4S(C)(=O)=O)cc4nccnc34)cc12 [Example 191, N-(2-Methanesulfonylphenyl)-8-(3-methyl-1-benzothiophen-5-yl)quinoxalin-6-amine] | 0.001 to 1
CC(=O)N1CC(NC(=O)c2ccncc2Nc2cc(-c3ccc4scc(C)c4c3)c3nccnc3c2)C1 [Example 206, N-(1-Acetylazetidin-3-yl)-3-{[8-(3-methyl-1-benzothiophen-5-yl)quinoxalin-6-yl]amino}pyridine-4-carboxamide] | 0.001 to 1
Cn1ccc2cc(-c3cc(Nc4cnccc4Cl)cc4nccnc34)ccc21 [Example 30, N-(4-Chloropyridin-3-yl)-8-(1-methyl-1H-indol-5-yl)quinoxalin-6-amine] | 10 to 100
Cn1ccc2cc(-c3cc(Nc4cnccc4-c4cncnc4)cc4nccnc34)ccc21 [Example 33, 8-(1-Methyl-1H-indol-5-yl)-N-[4-(pyrimidin-5-yl)pyridin-3-yl]quinoxalin-6-amine] | 10 to 100
Cc1csc2ccc(-c3cc(Nc4cnccc4C#N)cc4nccnc34)cc12 [Example 150, 3-{[8-(3-Methyl-1-benzothiophen-5-yl)quinoxalin-6-yl]amino}pyridine-4-carbonitrile] | 0.001 to 1
COc1ccc(C)cc1-c1cc(Nc2cnccc2S(C)(=O)=O)cc2nccnc12 [Example 74, N-(4-Methanesulfonylpyridin-3-yl)-8-(2-methoxy-5-methylphenyl)quinoxalin-6-amine] | 1 to 10
Cn1ccc2ccc(-c3cc(Nc4cnccc4C(=O)NCc4cccnn4)cc4nccnc34)cc21 [Example 144, 3-{[8-(1-Methyl-1H-indol-6-yl)quinoxalin-6-yl]amino}-N-[(pyridazin-3-yl)methyl]pyridine-4-carboxamide] | 0.001 to 1
CN1CCN(c2ccncc2Nc2cc(-c3ccc4ccn(C)c4c3)c3nccnc3c2)CC1 [Example 40, 8-(1-Methyl-1H-indol-6-yl)-N-[4-(4-methylpiperazin-1-yl)pyridin-3-yl]quinoxalin-6-amine] | 0.001 to 1
Cn1ccc2ccc(-c3cc(Nc4cc(-c5nn[nH]n5)ccc4S(C)(=O)=O)cc4nccnc34)cc21 [Example 43, N-[2-Methanesulfonyl-5-(2H-1,2,3,4-tetrazol-5-yl)phenyl]-8-(1-methyl-1H-indol-6-yl)quinoxalin-6-amine] | 0.001 to 1
CS(=O)(=O)c1ccncc1Nc1cc(-c2ccc(Br)c(F)c2)c2nccnc2c1 [Example 211, 8-(4-Bromo-3-fluorophenyl)-N-(4-methanesulfonylpyridin-3-yl)quinoxalin-6-amine] | 0.001 to 1
Cc1ccc(C(N)=O)c(-c2cc(Nc3cnccc3S(C)(=O)=O)cc3nccnc23)c1 [Example 128, 2-{7-[(4-methanesulfonylpyridin-3-yl)amino]quinoxalin-5-yl}-4-methylbenzamide] | 10 to 100
Cn1ccc2ccc(-c3cc(Nc4cnccc4S(C)(=O)=O)cc4nccnc34)c(F)c21 [Example 59, 8-(7-Fluoro-1-methyl-1H-indol-6-yl)-N-(4-methanesulfonylpyridin-3-yl)quinoxalin-6-amine] | 0.001 to 1
Cc1ccc(N)c(-c2cc(Nc3cnccc3S(C)(=O)=O)cc3nccnc23)c1 [Example 66, 8-(2-Amino-5-methylphenyl)-N-(4-methanesulfonylpyridin-3-yl)quinoxalin-6-amine] | 1 to 10
Cn1ccc2ccc(-c3cc(Nc4cc(N)ccc4S(C)(=O)=O)cc4nccnc34)cc21 [Example 36, 6-Methanesulfonyl-N1-[8-(1-methyl-1H-indol-6-yl)quinoxalin-6-yl]benzene-1,3-diamine] | 0.001 to 1
Cn1nnc2cc(-c3cc(Nc4cnccc4S(C)(=O)=O)cc4nccnc34)ccc21 [Example 167, N-(4-methanesulfonylpyridin-3-yl)-8-(1-methyl-1H-1,2,3-benzotriazol-5-yl)quinoxalin-6-amine] | 10 to 100
Cc1nc2cc(-c3cc(Nc4cnccc4S(C)(=O)=O)cc4nccnc34)ccc2s1 [Example 169, N-(4-methanesulfonylpyridin-3-yl)-8-(2-methyl-1,3-benzothiazol-5-yl)quinoxalin-6-amine] | 10 to 100

SMILES | IC50 [µM]
Cc1ccc(-c2cc(Nc3cnccc3S(C)(=O)=O)cc3nccnc23)cc1N [Example 75, 8-(3-Amino-4-methylphenyl)-N-(4-methanesulfonylpyridin-3-yl)quinoxalin-6-amine] | 0.001 to 1
Cc1coc2ccc(-c3cc(Nc4cnccc4C#N)cc4nccnc34)cc12 [Example 24, 3-{[8-(3-methyl-1-benzofuran-5-yl)quinoxalin-6-yl]amino}pyridine-4-carbonitrile] | 0.001 to 1
Cn1ccc2ccc(-c3cc(Nc4ncccc4S(C)(=O)=O)cc4nccnc34)cc21 [Example 81, N-(3-Methanesulfonylpyridin-2-yl)-8-(1-methyl-1H-indol-6-yl)quinoxalin-6-amine] | 0.001 to 1
CS(=O)(=O)c1ccncc1Nc1cc(-c2cccc(NC(=O)C3CCCN3)c2)c2nccnc2c1 (stereo not drawn) [Example 165, N-(3-{7-[(4-Methanesulfonylpyridin-3-yl)amino]quinoxalin-5-yl}phenyl)pyrrolidine-2-carboxamide] | 10 to 100
Cc1coc2ccc(-c3cc(Nc4c[n+]([O-])ccc4S(C)(=O)=O)cc4nccnc34)cc12 [Example 72, 4-Methanesulfonyl-3-{[8-(3-methyl-1-benzofuran-5-yl)quinoxalin-6-yl]amino}pyridin-1-ium-1-olate] | 0.001 to 1
Cn1ccc2ccc(-c3cc(Nc4cnccc4C(=O)NC4CCCCC4)cc4nccnc34)cc21 [Example 126, N-Cyclohexyl-3-{[8-(1-methyl-1H-indol-6-yl)quinoxalin-6-yl]amino}pyridine-4-carboxamide] | 1 to 10
N#Cc1cnccc1Nc1cc(Cl)c2nccnc2c1 [Example 146, 4-[(8-chloroquinoxalin-6-yl)amino]pyridine-3-carbonitrile] | 10 to 100
Cn1ccc2ccc(-c3cc(Nc4ccccc4S(C)(=O)=O)cc4nccnc34)nc21 [Example 21, N-(2-Methanesulfonylphenyl)-8-{1-methyl-1H-pyrrolo[2,3-b]pyridin-6-yl}quinoxalin-6-amine trifluoroacetate] | 0.001 to 1
Cn1ccc2ccc(-c3cc(Oc4cnccc4C(=O)O)cc4nccnc34)cc21 [Example 198, 3-{[8-(1-methyl-1H-indol-6-yl)quinoxalin-6-yl]oxy}pyridine-4-carboxylic acid] | 10 to 100
CNc1nc2cc(-c3cc(Nc4cnccc4S(C)(=O)=O)cc4nccnc34)ccc2s1 [Example 202, N-(4-Methanesulfonylpyridin-3-yl)-8-[2-(methylamino)-1,3-benzothiazol-5-yl]quinoxalin-6-amine] | 1 to 10
Cn1ccc2ccc(-c3cc(Nc4ccccc4C(=O)O)cc4nccnc34)cc21 [Example 178, 2-{[8-(1-Methyl-1H-indol-6-yl)quinoxalin-6-yl]amino}benzoic acid] | 0.001 to 1
CC(=O)N1CCOCC1CNC(=O)c1ccncc1Nc1cc(-c2ccc3ccn(C)c3c2)c2nccnc2c1 (stereo not drawn) [Example 136, N-[(4-acetylmorpholin-3-yl)methyl]-3-{[8-(1-methyl-1H-indol-6-yl)quinoxalin-6-yl]amino}pyridine-4-carboxamide] | 0.001 to 1
CCc1cccc(-c2cc(Nc3cnccc3S(C)(=O)=O)cc3nccnc23)c1 [Example 65, 8-(3-Ethylphenyl)-N-(4-methanesulfonylpyridin-3-yl)quinoxalin-6-amine] | 1 to 10
CC(C)Oc1cccc(-c2cc(Nc3cnccc3S(C)(=O)=O)cc3nccnc23)c1 [Example 130, N-(4-Methanesulfonylpyridin-3-yl)-8-[3-(propan-2-yloxy)phenyl]quinoxalin-6-amine] | 10 to 100
CN(c1cc(-c2ccc3ccn(C)c3c2)c2nccnc2c1)c1cnccc1C#N [Example 91, 3-{Methyl[8-(1-methyl-1H-indol-6-yl)quinoxalin-6-yl]amino}pyridine-4-carbonitrile] | 1 to 10
CN(c1cc(-c2ccc3ccn(C)c3c2)c2nccnc2c1)c1cnccc1C(N)=O [Example 95, 3-{Methyl[8-(1-methyl-1H-indol-6-yl)quinoxalin-6-yl]amino}pyridine-4-carboxamide] | 1 to 10
